Reference: paper PMC12589586, “Targeting TAZ-TEAD in minimal residual disease enhances the duration of targeted therapy in melanoma models” (Nature Communications, 2025)

Legend:
[1] = target: T1, TEAD1 (Homo sapiens, UniProt P28347); assay: protein thermal shift assay (delta Tm); assay type: binding; design: FLAG-tagged hTEAD1, depalmitoylated
[2] = target: T2, TEAD4 (Mus musculus, UniProt Q62296); assay: protein thermal shift assay (delta Tm); no binding to palmitoylated TEAD4
T2 construct: FLAG-tagged mTEAD4, depalmitoylated

[3] = target: T1, TEAD1; assay: co-crystal structure ([…] Å); also protein thermal shift; assay type: binding; design: FLAG-tagged hTEAD1, depalmitoylated (thermal shift)

T2 sequence (Q62296 whole entry): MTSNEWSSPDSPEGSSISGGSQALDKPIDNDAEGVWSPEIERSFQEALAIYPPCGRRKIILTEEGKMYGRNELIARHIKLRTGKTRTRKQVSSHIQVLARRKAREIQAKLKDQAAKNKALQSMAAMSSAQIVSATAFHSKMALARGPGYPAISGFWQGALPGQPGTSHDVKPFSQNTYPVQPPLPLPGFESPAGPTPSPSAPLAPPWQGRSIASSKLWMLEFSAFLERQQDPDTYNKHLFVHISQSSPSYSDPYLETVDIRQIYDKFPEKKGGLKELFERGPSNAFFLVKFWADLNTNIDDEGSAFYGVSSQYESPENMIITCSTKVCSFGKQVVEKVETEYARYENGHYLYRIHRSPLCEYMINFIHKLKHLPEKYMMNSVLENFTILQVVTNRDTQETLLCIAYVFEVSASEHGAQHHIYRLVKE
T1 sequence (P28347 whole entry): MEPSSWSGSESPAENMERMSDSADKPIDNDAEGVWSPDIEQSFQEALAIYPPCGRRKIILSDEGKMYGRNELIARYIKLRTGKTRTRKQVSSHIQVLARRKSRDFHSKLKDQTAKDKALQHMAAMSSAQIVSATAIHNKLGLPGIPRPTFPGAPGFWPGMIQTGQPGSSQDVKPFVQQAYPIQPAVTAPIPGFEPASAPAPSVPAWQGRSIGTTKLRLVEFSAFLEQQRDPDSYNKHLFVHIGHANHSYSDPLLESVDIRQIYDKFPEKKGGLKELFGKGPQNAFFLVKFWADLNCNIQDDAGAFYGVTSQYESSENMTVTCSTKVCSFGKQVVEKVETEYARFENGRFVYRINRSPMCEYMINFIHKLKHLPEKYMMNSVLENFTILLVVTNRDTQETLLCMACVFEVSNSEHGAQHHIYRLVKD

SMILES | protein thermal shift assay (delta Tm) [1] | protein thermal shift assay (delta Tm); no binding to palmitoylated TEAD4 [2] | co-crystal structure (2.03 Å); also protein thermal shift [3]
C=CC(=O)N1CCc2ccc(Oc3ccc(C(F)(F)F)cc3)cc2C1 [OPN-9643, 1-(7-(4-(trifluoromethyl)phenoxy)-3,4-dihydroisoquinolin-2(1H)-yl)prop-2-en-1-one] | protein thermal shift analysis and confirmed the binding of both compounds to depalmitoylated TEAD1 and TEAD4 proteins | Incubation of these compounds with depalmitoylated TEAD4 resulted in significant Tm shifts, indicating binding and stabilization of target proteins | 
C=CC(=O)N1CCc2ccc(Oc3ccc(C(F)(F)F)c(F)c3)cc2C1 [OPN-9652, 1-(7-(3-fluoro-4-(trifluoromethyl)phenoxy)-3,4-dihydroisoquinolin-2(1H)-yl)prop-2-en-1-one] |  | Incubation of these compounds with depalmitoylated TEAD4 resulted in significant Tm shifts, indicating binding and stabilization of target proteins | OPN-9652 occupies the central palmitate-binding pocket and covalently modifies Cys359
